The test concerns un-transformed soybean explants. As to the kind of experiment: Glyphosate dose response study on un-transformed soybean explants in tissue culture media. The conditions noted are these: for Number of Explants at Various Stages of Selection: SE-1 / Number of Explants at Various Stages of Selection: SE-2 / Number of Explants at Various Stages of Selection: SI-2 / Number of Explants at Various Stages of Selection: End of SE-2: 49 explants at CC; for Number of Explants at Various Stages of Selection: End of SE-2: six weeks on selection. It is filed as in vivo, soybean (Glycine max). The method, then:
Initially, a dose response study was completed. To test the effect of glyphosate on the explants, glyphosate was added to media used from the shoot initiation stage and onwards. Glyphosate was tested from the range of 0.025-0.2 mM. Incorporation of glyphosate in tissue culture media within this concentration range has been reported in soybean (Clemente et al., 2000; Hinchee et al., 1996; Martinell et al., 2006; Martinell et al., 1999; Martinell et al., 2002), tobacco (Singer et al., 1985), cotton (Zhao et al., 2006) and wheat (Hu et al., 2003). Five concentrations of glyphosate were tested for culturing of un-transformed soybean explants. The concentrations incorporated into the SI-2 media were 0.025 mM, 0.05 mM, 0.075 mM, 0.1 mM and 0.2 mM. The un-transformed soybean explants were maintained on the same rate of glyphosate selection for all the successive stages of subculture from SI-2 media to the completion of the tissue culturing protocol. The numbers of healthy explants were counted at each subculture stage. Dead explants were discarded and healthy explants were subcultured further onto appropriate media.
Growth of the explants was also retarded on glyphosate containing media. Next the cotyledons were removed and the explants were subcultured from SI-2 to SE media. At the end of another two weeks of selection on SE media, significant differences in the growth of the explants were observed when the explants were exposed to different levels of glyphosate. The retarded growth of the explants was proportionate to the increasing dose of glyphosate. Similarly the number of dead explants was also proportional to the increasing dose of glyphosate. The number of dead explants increased as the dose of glyphosate was increased. […] Subsequently, three different concentrations of glyphosate (e.g., 0.025 mM, 0.05 mM and 0.1 mM) were incorporated into the selection schemes for Agrobacterium-mediated transformation of the soybean split-seed explants comprising a portion of an embryonic axis.

Setting [1] is: 0.025 mM glyphosate in media from SI-2 onwards.
The mark [2] stands for this setting: 0.05 mM glyphosate in media from SI-2 onwards.
The mark [3] stands for this setting: 0.075 mM glyphosate in media from SI-2 onwards.
[4] abbreviates: 0.1 mM glyphosate in media from SI-2 onwards.
[5] abbreviates: 0.2 mM glyphosate in media from SI-2 onwards.

For the molecule `O=C(O)CNCP(=O)(O)O` [Glyphosate, glyphosate], the “Number of Explants at Various Stages of Selection: SE-1” value came to 41 under setting [1]; 45 under setting [2]; 45 under setting [3]; 41 under setting [4]; 31 under setting [5]. In addition, the “Number of Explants at Various Stages of Selection: SE-2” value runs as follows: under setting [1], 38; under setting [2], 38; under setting [3], 21; under setting [4], 13; under setting [5], 1; (0.2 mM glyphosate in media from SI-2 onwards, listed as glyphosate) “only one explants survived”. Also, the “Number of Explants at Various Stages of Selection: SI-2” value by setting is: under setting [1], 43; under setting [2], 45; under setting [3], 47; under setting [4], 44; under setting [5], 42. Further, the “Number of Explants at Various Stages of Selection: End of SE-2” value is recorded as “none of the soybean explants were able to survive” under setting [1]; 0 under setting [2]; 0 under setting [3]; 0 under setting [4]; 0 under setting [5]. Moreover, the “yellowing of the cotyledons” value (end of culturing on SI-2 media (about 2 weeks), 0.025-0.2 mM glyphosate, extent proportional to dose) is given as “explants showed yellowing of the cotyledons”. Moreover, the “growth of the explants” value (glyphosate containing media, 0.025-0.2 mM, proportionate to dose) is listed as “retarded”.

(Values after US20140173780A1, “SOYBEAN TRAN[…] EFFICIENT AND HIGH-[…] PRODUCTION” (DOW AGROSCIENCES LLC, priority 2012, published 2014).)
